Assay results reported in the NIST ThermoML archive (doi:10.1021/je700339f).
± gives the expanded uncertainty stated by the source.

Test: xn = mol fraction of the nth substance listed
Conditions: 298 K, Liquid

ClCCCCCl [1,4-dichlorobutane] + CN(C)C=O
mass density [kg/m3]
Conditions | x2 = 0.1003 | x2 = 0.1923 | x2 = 0.2994 | x2 = 0.4006 | x2 = 0.5022 | x2 = 0.6004 | x2 = 0.7029 | x2 = 0.7943 | x2 = 0.9006
100 kPa | 1119 ± 4.3 | 1105.1 ± 4.3 | 1087.9 ± 4.2 | 1071.2 ± 4.3 | 1052.4 ± 4.4 | 1034 ± 4.5 | 1013.1 ± 4.7 | 993.4 ± 4.9 | 968.9 ± 5.1
500 kPa | 1119.3 ± 4.4 | 1105.4 ± 4.3 | 1088.2 ± 4.2 | 1071.5 ± 4.3 | 1052.7 ± 4.4 | 1034.2 ± 4.5 | 1013.4 ± 4.7 | 993.7 ± 4.9 | 969.2 ± 5.1
1000 kPa | 1119.7 ± 4.4 | 1105.8 ± 4.3 | 1088.6 ± 4.2 | 1071.8 ± 4.3 | 1053.1 ± 4.4 | 1034.6 ± 4.5 | 1013.8 ± 4.7 | 994 ± 4.9 | 969.6 ± 5.1
1500 kPa | 1120.1 ± 4.4 | 1106.1 ± 4.3 | 1089 ± 4.2 | 1072.2 ± 4.3 | 1053.5 ± 4.4 | 1035 ± 4.5 | 1014.1 ± 4.7 | 994.3 ± 5 | 969.8 ± 5
2000 kPa | 1120.4 ± 4.4 | 1106.5 ± 4.3 | 1089.3 ± 4.2 | 1072.6 ± 4.3 | 1053.8 ± 4.4 | 1035.3 ± 4.5 | 1014.4 ± 4.7 | 994.7 ± 4.9 | 970.2 ± 5.1
2500 kPa | 1120.8 ± 4.4 | 1106.9 ± 4.3 | 1089.7 ± 4.2 | 1072.9 ± 4.3 | 1054.2 ± 4.4 | 1035.7 ± 4.5 | 1014.7 ± 4.7 | 995 ± 4.9 | 970.5 ± 5.1
3000 kPa | 1121.2 ± 4.4 | 1107.3 ± 4.3 | 1090.1 ± 4.2 | 1073.3 ± 4.3 | 1054.5 ± 4.4 | 1036 ± 4.5 | 1015.1 ± 4.7 | 995.4 ± 5 | 970.7 ± 5.1
3500 kPa | 1121.6 ± 4.4 | 1107.7 ± 4.3 | 1090.4 ± 4.3 | 1073.6 ± 4.3 | 1054.8 ± 4.4 | 1036.3 ± 4.5 | 1015.4 ± 4.7 | 995.7 ± 5 | 971.1 ± 5.1
4000 kPa | 1122 ± 4.4 | 1108.1 ± 4.3 | 1090.8 ± 4.3 | 1074 ± 4.3 | 1055.2 ± 4.4 | 1036.7 ± 4.5 | 1015.8 ± 4.7 | 996 ± 5 | 971.4 ± 5.1
4500 kPa | 1122.3 ± 4.5 | 1108.4 ± 4.3 | 1091.2 ± 4.3 | 1074.4 ± 4.3 | 1055.5 ± 4.4 | 1037 ± 4.5 | 1016.1 ± 4.7 | 996.4 ± 5 | 971.8 ± 5.1
5000 kPa | 1122.7 ± 4.5 | 1108.8 ± 4.3 | 1091.6 ± 4.3 | 1074.8 ± 4.3 | 1055.9 ± 4.4 | 1037.4 ± 4.5 | 1016.4 ± 4.7 | 996.7 ± 5 | 972.1 ± 5.1
5500 kPa | 1123.1 ± 4.5 | 1109.2 ± 4.4 | 1091.9 ± 4.3 | 1075.1 ± 4.4 | 1056.2 ± 4.4 | 1037.7 ± 4.5 | 1016.8 ± 4.7 | 996.9 ± 5 | 972.3 ± 5.1
6000 kPa | 1123.4 ± 4.5 | 1109.5 ± 4.4 | 1092.3 ± 4.3 | 1075.4 ± 4.4 | 1056.6 ± 4.4 | 1038.1 ± 4.5 | 1017 ± 4.7 | 997.3 ± 5 | 972.6 ± 5.1
6500 kPa | 1123.8 ± 4.5 | 1109.9 ± 4.4 | 1092.6 ± 4.3 | 1075.9 ± 4.4 | 1057 ± 4.5 | 1038.4 ± 4.5 | 1017.5 ± 4.7 | 997.6 ± 5 | 972.9 ± 5.1
7000 kPa | 1124.2 ± 4.5 | 1110.3 ± 4.4 | 1093 ± 4.3 | 1076.2 ± 4.4 | 1057.2 ± 4.4 | 1038.8 ± 4.5 | 1017.8 ± 4.7 | 997.9 ± 5 | 973.3 ± 5.1
7500 kPa | 1124.6 ± 4.5 | 1110.7 ± 4.4 | 1093.4 ± 4.3 | 1076.6 ± 4.4 | 1057.6 ± 4.5 | 1039.1 ± 4.6 | 1018 ± 4.7 | 998.3 ± 5 | 973.6 ± 5.1
8000 kPa | 1124.9 ± 4.5 | 1111 ± 4.4 | 1093.7 ± 4.3 | 1076.9 ± 4.4 | 1057.9 ± 4.5 | 1039.4 ± 4.5 | 1018.4 ± 4.7 | 998.5 ± 5 | 973.9 ± 5.1
8500 kPa | 1125.2 ± 4.5 | 1111.4 ± 4.4 | 1094 ± 4.3 | 1077.2 ± 4.4 | 1058.3 ± 4.5 | 1039.7 ± 4.6 | 1018.7 ± 4.7 | 998.9 ± 5 | 974.2 ± 5.1
9000 kPa | 1125.6 ± 4.5 | 1111.8 ± 4.4 | 1094.4 ± 4.3 | 1077.6 ± 4.4 | 1058.7 ± 4.5 | 1040.1 ± 4.6 | 1019.1 ± 4.7 | 999.2 ± 5 | 974.5 ± 5.1
9500 kPa | 1126 ± 4.6 | 1112.2 ± 4.4 | 1094.8 ± 4.3 | 1078 ± 4.4 | 1059 ± 4.5 | 1040.4 ± 4.6 | 1019.4 ± 4.7 | 999.5 ± 5 | 974.8 ± 5.1
10000 kPa | 1126.4 ± 4.6 | 1112.6 ± 4.5 | 1095.2 ± 4.4 | 1078.4 ± 4.4 | 1059.3 ± 4.5 | 1040.8 ± 4.6 | 1019.7 ± 4.7 | 999.9 ± 5 | 975.2 ± 5.1
10500 kPa | 1126.8 ± 4.6 | 1112.9 ± 4.5 | 1095.5 ± 4.4 | 1078.7 ± 4.4 | 1059.7 ± 4.5 | 1041.1 ± 4.6 | 1020.1 ± 4.7 | 1000.2 ± 5 | 975.5 ± 5.1
10900 kPa | 1127.1 ± 4.6 | – | – | – | – | – | – | – | –
11000 kPa | – | 1113.3 ± 4.5 | 1095.9 ± 4.4 | 1079.1 ± 4.4 | 1060 ± 4.5 | 1041.5 ± 4.6 | 1020.4 ± 4.4 | – | 975.8 ± 5.9
11500 kPa | 1127.4 ± 4.6 | 1113.6 ± 4.5 | 1096.2 ± 4.4 | 1079.4 ± 4.4 | 1060.3 ± 4.5 | 1041.8 ± 4.6 | 1020.7 ± 4.7 | 1000.8 ± 5 | 976.1 ± 5.1
11900 kPa | – | 1113.9 ± 4.5 | – | – | 1060.6 ± 4.5 | – | – | – | –
12000 kPa | 1127.8 ± 4.2 | – | 1096.6 ± 4.4 | 1079.8 ± 4.4 | – | 1042.1 ± 4.6 | 1021.1 ± 4.7 | 1001.2 ± 5 | 976.4 ± 5.1
12500 kPa | 1128.2 ± 4.6 | 1114.3 ± 4.5 | 1096.9 ± 4.4 | 1080.1 ± 4.4 | 1061 ± 4.5 | 1042.4 ± 4.6 | 1021.4 ± 4.7 | 1001.5 ± 5 | 976.7 ± 5.1
12900 kPa | – | – | – | – | – | – | 1021.7 ± 4.8 | – | –
13000 kPa | 1128.5 ± 4.7 | 1114.7 ± 4.5 | 1097.3 ± 4.4 | 1080.4 ± 4.5 | 1061.3 ± 4.5 | 1042.7 ± 4.6 | – | 1001.7 ± 5 | 976.9 ± 5.1
13500 kPa | 1128.9 ± 4.7 | 1115 ± 4.5 | 1097.7 ± 4.4 | 1080.8 ± 4.5 | 1061.6 ± 4.5 | 1043.1 ± 4.6 | 1022 ± 4.8 | 1002.1 ± 5 | 977.2 ± 5.1
13900 kPa | – | 1115.3 ± 4.5 | – | – | 1062 ± 4.5 | – | – | – | –
14000 kPa | 1129.2 ± 4.2 | – | 1097.9 ± 4.4 | 1081.1 ± 4.5 | – | 1043.4 ± 4.6 | 1022.4 ± 4.8 | 1002.3 ± 5 | 977.5 ± 5.1
14400 kPa | – | – | – | 1081.4 ± 4.5 | – | – | 1022.6 ± 4.8 | – | –
14500 kPa | 1129.5 ± 4.7 | 1115.7 ± 4.6 | 1098.2 ± 4.4 | – | 1062.3 ± 4.5 | 1043.7 ± 4.6 | – | 1002.7 ± 5 | 977.8 ± 5.1
15000 kPa | 1129.9 ± 4.7 | 1116 ± 4.6 | 1098.6 ± 4.4 | 1081.8 ± 4.5 | 1062.6 ± 4.5 | 1044 ± 4.6 | 1023 ± 4.8 | 1003 ± 5 | 978.1 ± 5.1
15500 kPa | 1130.3 ± 4.7 | 1116.4 ± 4.6 | 1099 ± 4.5 | 1082.1 ± 4.5 | 1063 ± 4.5 | 1044.4 ± 4.6 | 1023.2 ± 4.8 | 1003.3 ± 5 | 978.4 ± 5.1
16000 kPa | 1130.6 ± 4.7 | 1116.8 ± 4.6 | 1099.2 ± 4.5 | 1082.5 ± 4.5 | 1063.3 ± 4.6 | 1044.6 ± 4.6 | 1023.5 ± 4.8 | 1003.5 ± 5 | 978.7 ± 5.1
16500 kPa | 1130.9 ± 4.7 | 1117.1 ± 4.6 | 1099.6 ± 4.5 | 1082.8 ± 4.5 | 1063.6 ± 4.5 | 1045 ± 4.6 | 1023.8 ± 4.8 | 1003.8 ± 5 | 978.9 ± 5.1
16900 kPa | – | 1117.4 ± 4.6 | – | – | – | – | 1024.1 ± 4.8 | 1004.1 ± 5 | –
17000 kPa | 1131.3 ± 4.3 | – | 1100 ± 4.5 | 1083.1 ± 4.5 | 1063.9 ± 4.6 | 1045.3 ± 4.6 | – | – | 979.3 ± 2.9
17500 kPa | 1131.6 ± 4.8 | 1117.8 ± 4.6 | 1100.3 ± 4.5 | 1083.5 ± 4.5 | 1064.2 ± 4.6 | 1045.6 ± 4.6 | 1024.4 ± 4.8 | 1004.5 ± 5 | 979.5 ± 5.1
17900 kPa | – | – | – | – | 1064.5 ± 4.6 | – | – | – | –
18000 kPa | 1132 ± 4.8 | 1118.1 ± 4.6 | 1100.6 ± 4.5 | 1083.8 ± 4.5 | – | 1045.9 ± 4.6 | 1024.7 ± 4.8 | 1004.9 ± 5 | 979.8 ± 5.2
18500 kPa | 1132.3 ± 4.8 | 1118.4 ± 4.7 | 1100.9 ± 4.5 | 1084.2 ± 4.5 | 1065 ± 4.6 | 1046.3 ± 4.6 | 1025.1 ± 4.8 | 1005.1 ± 5 | 980 ± 5.2
19000 kPa | 1132.8 ± 4.8 | 1118.8 ± 4.7 | 1101.4 ± 4.5 | 1084.5 ± 4.5 | 1065.3 ± 4.6 | 1046.6 ± 4.6 | 1025.4 ± 4.8 | 1005.5 ± 5 | 980.4 ± 5.2
19400 kPa | – | – | 1101.7 ± 4.5 | – | – | – | – | 1005.7 ± 5 | –
19500 kPa | 1133.1 ± 4.9 | 1119.1 ± 4.7 | – | 1084.9 ± 4.6 | 1065.5 ± 4.6 | 1046.9 ± 4.6 | 1025.7 ± 4.8 | – | 980.7 ± 2.9
20000 kPa | 1133.4 ± 4.9 | 1119.5 ± 4.7 | – | 1085.3 ± 4.6 | 1065.9 ± 4.6 | 1047.2 ± 4.6 | 1026.1 ± 4.8 | 1006.1 ± 5 | 981 ± 5.2
20100 kPa | – | – | 1102.2 ± 4.5 | – | – | – | – | – | –
